pIC50: −log10 of the molar value.
Tests used:
[1] = molecular target: T1, MTHFD2 recombinant human enzyme (Homo sapiens, UniProt P13995); experiment: MTHFD2 inhibition assay (NAD(P)H-Glo luminescence); conditions: for MTHFD1/MTHFD2 IC50 ratio: selectivity of MTHFD2 inhibition over MTHFD1, band
T1 sequence (P13995 36-350): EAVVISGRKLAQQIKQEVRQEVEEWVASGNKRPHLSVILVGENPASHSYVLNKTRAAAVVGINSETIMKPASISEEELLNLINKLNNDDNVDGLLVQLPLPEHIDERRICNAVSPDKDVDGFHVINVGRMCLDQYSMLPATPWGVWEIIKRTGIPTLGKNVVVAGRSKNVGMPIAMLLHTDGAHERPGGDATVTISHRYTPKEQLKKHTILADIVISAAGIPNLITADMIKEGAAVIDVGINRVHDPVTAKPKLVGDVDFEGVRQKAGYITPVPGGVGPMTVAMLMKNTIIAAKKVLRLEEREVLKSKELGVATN

[2] = molecular target: T2, MTHFD1 recombinant human enzyme (Homo sapiens, UniProt P11586); experiment: MTHFD1 inhibition assay (NAD(P)H-Glo luminescence); conditions: MTHFD1 IC50, recombinant human enzyme 200 nM, NADP, band
T2 sequence (P11586 2-291 limits assumed): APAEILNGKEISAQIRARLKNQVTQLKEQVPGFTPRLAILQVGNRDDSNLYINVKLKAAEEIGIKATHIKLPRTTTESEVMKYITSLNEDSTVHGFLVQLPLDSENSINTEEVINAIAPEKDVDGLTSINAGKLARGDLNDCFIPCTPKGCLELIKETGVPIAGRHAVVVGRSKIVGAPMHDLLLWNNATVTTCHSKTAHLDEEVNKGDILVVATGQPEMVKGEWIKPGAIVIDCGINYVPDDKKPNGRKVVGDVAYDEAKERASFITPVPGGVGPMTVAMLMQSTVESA

SMILES | pIC50 [1] | MTHFD1/MTHFD2 IC50 ratio [1] | pIC50 [2]
COC[C@H]1CN(c2cc(C)c3c4c(c(=O)oc3c2C)CN(C(=O)c2ccc(C(=O)NS(=O)(=O)N3CCCC3)c(OC3CCC(F)(F)CC3)c2)CC4)CCN1C [Example 99, (R)-2-((4,4-difluorocyclohexyl)oxy)-4-(8-(3-(methoxymethyl)-4-methylpiperazin-1-yl)-7,10-dimethyl-5-oxo-1,3,4,5-tetrahydro-2H-chromeno[3,4-c]pyridine-3-carbonyl)-N-(pyrrolidin-1-ylsulfonyl)benzamide] | 7.00 to 8.00 | F (<3) | 7.00 to 8.00
COC[C@H]1CN(c2cc(C)c3c4c(c(=O)oc3c2C)CN(C(=O)c2ccc(C(=O)NS(=O)(=O)N(C)C)c(OC3CCC3)c2F)CC4)CCN1C [Example 51, (R)-2-cyclobutoxy-N-(N,N-dimethylsulfamoyl)-3-fluoro-4-(8-(3-(methoxymethyl)-4-methylpiperazin-1-yl)-7,10-dimethyl-5-oxo-1,3,4,5-tetrahydro-2H-chromeno[3,4-c]pyridine-3-carbonyl)benzamide] | 8.00 to 9.00 | F (<3) | 8.00 to 9.00
CCOc1c(C(=O)NS(=O)(=O)N2CCCC2)ccc(C(=O)N2CCc3c(c(=O)oc4c(C)c(N5CCN(C)[C@@H](COC)C5)cc(Cl)c34)C2)c1F [Example 258, (R)-4-(10-chloro-8-(3-(methoxymethyl)-4-methylpiperazin-1-yl)-7-methyl-5-oxo-1,3,4,5-tetrahydro-2H-chromeno[3,4-c]pyridine-3-carbonyl)-2-ethoxy-3-fluoro-N-(pyrrolidin-1-ylsulfonyl)benzamide] | 8.00 to 9.00 | H (>9.0 to 30) | 7.00 to 8.00
COC[C@H]1CN(c2ccc3c4c(c(=O)oc3c2C)CN(C(=O)c2cc(Cl)c(C(=O)NS(=O)(=O)N3CCCC3)c(N3CC5CC5C3)c2)CC4)CCN1C (stereo partly drawn) [Example 105, 2-(3-azabicyclo[3.1.0]hexan-3-yl)-6-chloro-4-(8-((R)-3-(methoxymethyl)-4-methylpiperazin-1-yl)-7-methyl-5-oxo-1,3,4,5-tetrahydro-2H-chromeno[3,4-c]pyridine-3-carbonyl)-N-(pyrrolidin-1-ylsulfonyl)benzamide] | 6.00 to 7.00 | G (^ 3 to 9.0) | 6.00 to 7.00
COC[C@H]1CN(c2cc(C)c3c4c(c(=O)oc3c2C)CN(C(=O)c2cc(OC)c(C(=O)NS(=O)(=O)N3CCCC3)c(C(F)(F)F)c2)CC4)CCN1C [Example 154, (R)-2-methoxy-4-(8-(3-(methoxymethyl)-4-methylpiperazin-1-yl)-7,10-dimethyl-5-oxo-1,3,4,5-tetrahydro-2H-chromeno[3,4-c]pyridine-3-carbonyl)-N-(pyrrolidin-1-ylsulfonyl)-6-(trifluoromethyl)benzamide] | 6.00 to 7.00 | H (>9.0 to 30) | 5.30 to 6.00
COC[C@H]1CN(c2cc(C)c3c4c(c(=O)oc3c2C)CN(C(=O)c2ccc(C(=O)NS(=O)(=O)N(C)C)c(OC3CCCC3)c2F)CC4)CCN1C [Example 43, (R)-2-(cyclopentyloxy)-N-(N,N-dimethylsulfamoyl)-3-fluoro-4-(8-(3-(methoxymethyl)-4-methylpiperazin-1-yl)-7,10-dimethyl-5-oxo-1,3,4,5-tetrahydro-2H-chromeno[3,4-c]pyridine-3-carbonyl)benzamide] | 8.00 to 9.00 | F (<3) | 8.00 to 9.00
COC[C@H]1CN(c2ccc3c4c(c(=O)oc3c2C)CN(C(=O)c2cc(F)c(C(=O)NS(=O)(=O)C3(C)CC3)c(N3CC5CC5C3)c2)CC4)CCN1C (stereo partly drawn) [Example 26, 2-(3-azabicyclo[3.1.0]hexan-3-yl)-6-fluoro-4-(8-((R)-3-(methoxymethyl)-4-methylpiperazin-1-yl)-7-methyl-5-oxo-1,3,4,5-tetrahydro-2H-chromeno[3,4-c]pyridine-3-carbonyl)-N-((1-methylcyclopropyl)sulfonyl)benzamide] | 8.00 to 9.00 | F (<3) | 8.00 to 9.00
COC[C@H]1CN(c2cc(C)c3c4c(c(=O)oc3c2C)CN(C(=O)c2ccc(C(=O)NS(=O)(=O)N(C)C)c(N3CC5CCC3C5)c2)CC4)CCN1C (stereo partly drawn) [Example 116, 2-(2-azabicyclo[2.2.1]heptan-2-yl)-N-(N,N-dimethylsulfamoyl)-4-(8-((R)-3-(methoxymethyl)-4-methylpiperazin-1-yl)-7,10-dimethyl-5-oxo-1,3,4,5-tetrahydro-2H-chromeno[3,4-c]pyridine-3-carbonyl)benzamide] | 7.00 to 8.00 | F (<3) | 8.00 to 9.00
CCOc1c(C(=O)NS(=O)(=O)N2C[C@H]3CCC[C@H]3C2)ccc(C(=O)N2CCc3c(c(=O)oc4c(C)c(N5CCN(C)[C@@H](COC)C5)cc(C)c34)C2)c1F [Example 232] | 7.00 to 8.00 | F (<3) | 7.00 to 8.00
COC[C@H]1CN(c2ccc3c4c(c(=O)oc3c2C)CN(C(=O)c2cc(Cl)c(C(=O)NS(=O)(=O)N(C)C)c(N3C5CCC3CC5)c2)CC4)CCN1C [Example 80, (R)-2-(7-azabicyclo[2.2.1]heptan-7-yl)-6-chloro-N-(N,N-dimethylsulfamoyl)-4-(8-(3-(methoxymethyl)-4-methylpiperazin-1-yl)-7-methyl-5-oxo-1,3,4,5-tetrahydro-2H-chromeno[3,4-c]pyridine-3-carbonyl)benzamide] | 7.00 to 8.00 | G (^ 3 to 9.0) | 7.00 to 8.00
CCOc1c(C(=O)NS(=O)(=O)N2CCCCC2)ccc(C(=O)N2CCc3c(c(=O)oc4c(C)c(N5CCN(C)[C@@H](COC)C5)cc(C)c34)C2)c1F [Example 197, (R)-2-ethoxy-3-fluoro-4-(8-(3-(methoxymethyl)-4-methylpiperazin-1-yl)-7,10-dimethyl-5-oxo-1,3,4,5-tetrahydro-2H-chromeno[3,4-c]pyridine-3-carbonyl)-N-(piperidin-1-ylsulfonyl)benzamide] | 7.00 to 8.00 | G (^ 3 to 9.0) | 7.00 to 8.00
COC[C@H]1CN(c2ccc3c4c(c(=O)oc3c2Cl)CN(C(=O)c2ccc(C(=O)NS(=O)(=O)N(C)C(C)C)c(OC3CCCC3)c2F)CC4)CCN1C [Example 29, (R)-4-(7-chloro-8-(3-(methoxymethyl)-4-methylpiperazin-1-yl)-5-oxo-1,3,4,5-tetrahydro-2H-chromeno[3,4-c]pyridine-3-carbonyl)-2-(cyclopentyloxy)-3-fluoro-N-(N-isopropyl-N-methylsulfamoyl)benzamide] | 7.00 to 8.00 | F (<3) | 7.00 to 8.00
COC[C@H]1CN(c2ccc3c4c(c(=O)oc3c2C)CN(C(=O)c2ccc(C(=O)NS(=O)(=O)N(C)C)c(OC3CCCC3)c2F)CC4)CCN1C [Example 5, (R)-2-(cyclopentyloxy)-N-(N,N-dimethylsulfamoyl)-3-fluoro-4-(8-(3-(methoxymethyl)-4-methylpiperazin-1-yl)-7-methyl-5-oxo-1,3,4,5-tetrahydro-2H-chromeno[3,4-c]pyridine-3-carbonyl)benzamide] | 7.00 to 8.00 | F (<3) | 8.00 to 9.00
COC[C@H]1CN(c2cc(C)c3c4c(c(=O)oc3c2C)CN(C(=O)c2ccc(C(=O)NS(=O)(=O)N(C)C)c(N3C5CCC3CC5)c2F)CC4)CCN1C [Example 74, (R)-2-(7-azabicyclo[2.2.1]heptan-7-yl)-N-(N,N-dimethylsulfamoyl)-3-fluoro-4-(8-(3-(methoxymethyl)-4-methylpiperazin-1-yl)-7,10-dimethyl-5-oxo-1,3,4,5-tetrahydro-2H-chromeno[3,4-c]pyridine-3-carbonyl)benzamide] | 8.00 to 9.00 | F (<3) | 8.00 to 9.00
CCOc1c(C(=O)NS(=O)(=O)N(C)C)ccc(C(=O)N2CCc3c(c(=O)oc4c(C)c(N5CCN(C)[C@@H](COC)C5)cc(C)c34)C2)c1F [Example 146, (R)-N-(N,N-dimethylsulfamoyl)-2-ethoxy-3-fluoro-4-(8-(3-(methoxymethyl)-4-methylpiperazin-1-yl)-7,10-dimethyl-5-oxo-1,3,4,5-tetrahydro-2H-chromeno[3,4-c]pyridine-3-carbonyl)benzamide] | 8.00 to 9.00 | F (<3) | 7.00 to 8.00
CCOc1c(C(=O)NS(=O)(=O)N2CC3CCC(C3)C2)ccc(C(=O)N2CCc3c(c(=O)oc4c(C)c(N5CCN(C)[C@@H](COC)C5)cc(C)c34)C2)c1F [Example 235] | 7.00 to 8.00 | G (^ 3 to 9.0) | 6.00 to 7.00
COC[C@H]1CN(c2cc(C)c3c4c(c(=O)oc3c2)CN(C(=O)c2ccc(C(=O)NS(=O)(=O)N3CCCC3)c(OC3CCC3)c2F)CC4)CCN1C [Example 186, (R)-2-cyclobutoxy-3-fluoro-4-(8-(3-(methoxymethyl)-4-methylpiperazin-1-yl)-10-methyl-5-oxo-1,3,4,5-tetrahydro-2H-chromeno[3,4-c]pyridine-3-carbonyl)-N-(pyrrolidin-1-ylsulfonyl)benzamide] | 6.00 to 7.00 | F (<3) | 6.00 to 7.00
